Reference: patent publication US20110097274A1, “Carbon-11 and fluorine-18 labeled radioligands for positron emission tomography (PET) imaging for the brain serotonin transporters” (priority 2002, published 2011)
Where “and” joins values, the source holds several entries; their conditions need not be identical. Equal entries are not always repeated. Where two headings read alike, the source gives them in different places.

Assays:
[1] = Plasma free fraction (f1) and filter retention by ultrafiltration; assay type: in vitro ADME, baboon; conditions: mean ± SD of four experiments
Experimental: Plasma and ultrafiltrate activities were counted, and f1 was calculated as the ratio of ultrafiltrate activity to total plasma activity. Triplicate aliquots of the radioligand in pH 7.4 Tris buffer were also processed to determine the filter retention of free tracer.

[2] = Baboon PET imaging: brain uptake, kinetic analysis and SERT parameters; assay type: in vivo; conditions: male, baboon, intravenous, baboons
Experimental: (§1) PET imaging protocol: PET experiments (n=20) were performed at Columbia University. Two adult male baboons (baboon A and B) were studied twice with each of the 5 radioligands (4 experiments per radioligand). All experiments took place within a 9-month period. Baboons A and B were 31 kg and 21 kg in weight at the beginning of the experimental period and 28 and 22 kg at the end, respectively. Test and retest experiments with the same radioligand were obtained on different days, with an average interval of 117±53 days.
(§2) Experiments were performed according to protocols approved by the Columbia-Presbyterian Medical Center Institutional Animal Care and Use Committee. Fasted animals were immobilized with ketamine (10 mg/kg i.m.), and anesthetized with 1.8% isoflurane via an endotracheal tube. Vital signs were monitored every 10 minutes and the temperature was kept constant at 37° C. with heated water blankets. An i.v. perfusion line was used for hydration and injection of radioligands and nonradioactive drugs. A catheter was inserted in a femoral artery for arterial blood sampling. Head was positioned at the center of the field of view as defined by imbedded laser lines. PET imaging was performed with the ECAT EXACT HR+PET scanner (Siemens/CTI, Knoxville, Tenn.). In 3D mode, this camera provides an in-plane resolution of 4.3 mm, 4.5 mm, 5.4 mm and 8.0 mm full width at half maximum (FWHM) at a distance of 0, 1, 10 and 20 cm from the center of the field of view, respectively (Brix et al., 1997). A 15 minute transmission scan was obtained prior to radioligand injection for attenuation correction. Activity was injected i.v. over 30 seconds. […] Emission data was collected in the 3D mode for 91 minutes as 21 successive frames of increasing duration (6*10 seconds, 2*1 minutes, 4*2 minutes, 2*5 minutes, and 7*10 minutes).
(§3) Image analysis: A Magnetic Resonance Image (MRI) of each baboon's brain was obtained for the purpose of identifying the regions of interest (ROI) (T1-weighted axial MRI sequence, acquired parallel to the anterior-posterior commissure, TR 34 msec, TE 5 msec, flip angle of 45 degrees, slice thickness is 1.5 mm, zero gap, matrix 1.5 mm×1 mm×1 mm voxels). The following regions were drawn on the MR images: cerebellum, midbrain, thalamus, striatum, hippocampus, temporal cortex, cingulate cortex and occipital cortex.
(§4) PET emission data were attenuation-corrected using the transmission scan, and frames were reconstructed using a Shepp filter (cutoff 0.5 cycles/projection rays). Reconstructed image files were then processed using the image analysis software MEDx (Sensor Systems, Inc., Sterling, Va.). An image was created by summing all the frames, and this summed image was used to define the registration parameters with the MR image, using between-modality automated image registration (AIR) algorithm (Woods et al., 1993). Registration parameters were then applied to the individual frames for registration to the MR data set. Regional boundaries were transferred to the individual registered PET frames, and time-activity curves were measured and decay-corrected. Right and left regions were averaged. For a given animal, the same regions were used for all radioligands.
(§5) Brain uptake: Total brain uptake was expressed as percentage of the injected dose per gram of tissue (% ID g^−1) in a region encompassing the entire brain. Regional peak time was defined as the mid-time of the frame associated with the highest activity value. To estimate the degree of wash-out from the brain captured during the scan interval (91 minutes), the decrease in activity from the peak frame to the last frame was calculated and expressed in percentage of the peak activity.
(§6) Kinetic analysis: Regional total distribution volumes (VT, mL g^−1) were derived with kinetic analysis of the regional time-activity curves, using the arterial plasma concentrations as input function. […]

SERT = assay: as above; assay type: in vivo; conditions: for Kp: male, baboon, brain, intravenous
Experimental: as §1, §2, §3, §4, §5, §6

[3] = BP = VT ROI − VT CER, baboons, mean ± SD of four experiments
[4] = Mean ± SD of four experiments in two baboons
[5] = baboon A, experiments of FIGS. 5-9 (FIG. 10)
[6] = baboons, mean ± SD of four experiments
[7] = last scan 90 minutes, baboons, mean ± SD of four experiments
[8] = one-tissue compartment model, baboons, mean ± SD of four experiments

CN(C)Cc1ccccc1Sc1ccc(I)cc1N [[^11C]ADAM]
Filter retention ([1]; activity remaining on filter, radioligand dissolved in saline): 88.2 ± 5.2%
fraction unbound at 20 min ([1]; male, monkey, baboon plasma, ultrafiltration): 0.009 ± 0.007
Kp ([2]; brain regions (average of all regions), read-out: VT, average of all regions and all animals): 42.8 ± 12.9
Kp ([2]; cerebellum, one-tissue compartment model, mean ± SD of four experiments, read-out: VT Cerebellum (VT CER, nonspecific distribution volume)): 28.5 ± 4.8
Binding potential Cingulate Cortex (SERT; [3]): 8.8 ± 3.9 mL/g
Binding potential Hippocampus (SERT; [3]): 12.6 ± 3.3 mL/g
Binding potential Midbrain (SERT; [3]): 28.5 ± 6.7 mL/g
Binding potential Occipital Cortex (SERT; [3]): 4.9 ± 3.8 mL/g
Binding potential Striatum (SERT; [3]): 17.8 ± 3.7 mL/g
Binding potential Temporal Cortex (SERT; [3]): 10.1 ± 5.0 mL/g
Binding potential Thalamus (SERT; [3]): 31.4 ± 6.1 mL/g
Equilibrium specific to non-specific partition coefficient (V3″) Cingulate Cortex (SERT; Baboon A, single experiment): 0.28 and 0.43
Equilibrium specific to non-specific partition coefficient (V3″) Hippocampus (SERT; Baboon A, single experiment): 0.41 and 0.49
Equilibrium specific to non-specific partition coefficient (V3″) Midbrain (SERT; Baboon A, single experiment): 1.04 and 0.81
Equilibrium specific to non-specific partition coefficient (V3″) Striatum (SERT; Baboon A, single experiment): 0.65 and 0.59
Equilibrium specific to non-specific partition coefficient (V3″) Temporal Cortex (SERT; Baboon A, single experiment): 0.41 and 0.47
Equilibrium specific to non-specific partition coefficient (V3″) Thalamus (SERT; Baboon A, single experiment): 1.18 and 0.92
Equilibrium specific to non-specific partition coefficient (V3″) Cingulate Cortex (SERT; Baboon B, single experiment): 0.23 and 0.26
Equilibrium specific to non-specific partition coefficient (V3″) Hippocampus (SERT; Baboon B, single experiment): 0.38 and 0.47
Equilibrium specific to non-specific partition coefficient (V3″) Midbrain (SERT; Baboon B, single experiment): 0.91 and 1.25
Equilibrium specific to non-specific partition coefficient (V3″) Occipital Cortex (SERT; Baboon B, single experiment): 0.07 and 0.12
Equilibrium specific to non-specific partition coefficient (V3″) Striatum (SERT; Baboon B, single experiment): 0.56 and 0.68
Equilibrium specific to non-specific partition coefficient (V3″) Temporal Cortex (SERT; Baboon B, single experiment): 0.18 and 0.30
Equilibrium specific to non-specific partition coefficient (V3″) Thalamus (SERT; Baboon B, single experiment): 1.05 and 1.26
Equilibrium specific to non-specific partition coefficient (V3″) Cingulate Cortex (SERT; [4]): 0.30 ± 0.09
Equilibrium specific to non-specific partition coefficient (V3″) Hippocampus (SERT; [4]): 0.44 ± 0.05
Equilibrium specific to non-specific partition coefficient (V3″) Midbrain (SERT; [4]): 1.00 ± 0.19
Equilibrium specific to non-specific partition coefficient (V3″) Occipital Cortex (SERT; [4]): 0.16 ± 0.11
Equilibrium specific to non-specific partition coefficient (V3″) Striatum (SERT; [4]): 0.62 ± 0.06
Equilibrium specific to non-specific partition coefficient (V3″) Temporal Cortex (SERT; [4]): 0.34 ± 0.13
Equilibrium specific to non-specific partition coefficient (V3″) Thalamus (SERT; [4]): 1.10 ± 0.15
Thalamus to cerebellum ratio equal to true equilibrium ratio (V3″+1) (SERT; [5]): 1.92
Time at which measured thalamus to cerebellum ratio equals the true equilibrium ratio (estimate of peak specific binding) (SERT; [5]): 55 min
K1, average of all regions and all animals (SERT; baboons): 1.09 ± 0.35 mL/g/min
k2, average of all regions and all animals (SERT; baboons): 0.028 ± 0.011 min⁻¹
V3″ expressed in percentage of [^11C]McN 5652 V3″ (SERT; baboons, combining all regions): 128±24%
Mean regional peak uptake time (SERT; baboons, mean of all regions): 37 ± 18 min
Mean regional wash-out (% decrease between peak time and last scan) (SERT; baboons, mean of all regions): 25±14%
Cingulate Cortex to cerebellum activity ratio at 90 minutes (SERT; [6]): 1.29 ± 0.07
Hippocampus to cerebellum activity ratio at 90 minutes (SERT; [6]): 1.45 ± 0.06
Midbrain to cerebellum activity ratio at 90 minutes (SERT; [6]): 1.96 ± 0.18
Occipital Cortex to cerebellum activity ratio at 90 minutes (SERT; [6]): 1.14 ± 0.09
Regional uptake peak time Cerebellum (SERT; [6]): 14 ± 5 min
Regional uptake peak time Cingulate Cortex (SERT; [6]): 32 ± 17 min
Regional uptake peak time Hippocampus (SERT; [6]): 46 ± 8 min
Regional uptake peak time Midbrain (SERT; [6]): 49 ± 22 min
Regional uptake peak time Occipital Cortex (SERT; [6]): 30 ± 18 min
Regional uptake peak time Striatum (SERT; [6]): 39 ± 15 min
Regional uptake peak time Temporal Cortex (SERT; [6]): 39 ± 13 min
Regional uptake peak time Thalamus (SERT; [6]): 51 ± 24 min
Striatum to cerebellum activity ratio at 90 minutes (SERT; [6]): 1.65 ± 0.13
Temporal Cortex to cerebellum activity ratio at 90 minutes (SERT; [6]): 1.33 ± 0.08
Thalamus to cerebellum activity ratio at 90 minutes (SERT; [6]): 2.05 ± 0.23
Total brain uptake at 45 min (SERT; baboons, region encompassing the entire brain): 0.017±0.001 % ID g^−1
Regional activity wash-out: % decrease from peak to last scan, Cerebellum (SERT; [7]): 45 ± 8%
Regional activity wash-out: % decrease from peak to last scan, Cingulate Cortex (SERT; [7]): 34 ± 7%
Regional activity wash-out: % decrease from peak to last scan, Hippocampus (SERT; [7]): 15 ± 6%
Regional activity wash-out: % decrease from peak to last scan, Midbrain (SERT; [7]): 10 ± 7%
Regional activity wash-out: % decrease from peak to last scan, Occipital Cortex (SERT; [7]): 36 ± 10%
Regional activity wash-out: % decrease from peak to last scan, Striatum (SERT; [7]): 23 ± 6%
Regional activity wash-out: % decrease from peak to last scan, Temporal Cortex (SERT; [7]): 25 ± 8%
Regional activity wash-out: % decrease from peak to last scan, Thalamus (SERT; [7]): 12 ± 5%
Kp (SERT; cingulate cortex, one-tissue compartment model, baboons, mean ± SD of four experiments, read-out: VT Cingulate Cortex): 37.3 ± 8.5
Kp (SERT; hippocampus, one-tissue compartment model, baboons, mean ± SD of four experiments, read-out: VT Hippocampus): 41.1 ± 8
Kp (SERT; midbrain, one-tissue compartment model, baboons, mean ± SD of four experiments, read-out: VT Midbrain): 57 ± 10.2
Kp (SERT; occipital cortex, one-tissue compartment model, baboons, mean ± SD of four experiments, read-out: VT Occipital Cortex): 33.5 ± 8.3
Kp (SERT; striatum, one-tissue compartment model, baboons, mean ± SD of four experiments, read-out: VT Striatum): 46.3 ± 8.4
Kp (SERT; temporal cortex, one-tissue compartment model, baboons, mean ± SD of four experiments, read-out: VT Temporal Cortex): 38.6 ± 9.7
Kp (SERT; thalamus, one-tissue compartment model, baboons, mean ± SD of four experiments, read-out: VT Thalamus): 59.9 ± 10.1
K1 Cerebellum (SERT; [8]): 1.23 ± 0.44 mL/g/min
K1 Cingulate Cortex (SERT; [8]): 1.20 ± 0.38 mL/g/min
K1 Hippocampus (SERT; [8]): 0.85 ± 0.32 mL/g/min
K1 Midbrain (SERT; [8]): 1.00 ± 0.35 mL/g/min
K1 Occipital Cortex (SERT; [8]): 1.12 ± 0.33 mL/g/min
K1 Striatum (SERT; [8]): 1.15 ± 0.45 mL/g/min
K1 Temporal Cortex (SERT; [8]): 1.02 ± 0.37 mL/g/min
K1 Thalamus (SERT; [8]): 1.14 ± 0.32 mL/g/min
K2 Cerebellum (SERT; [8]): 0.043 ± 0.012 min⁻¹
K2 Cingulate Cortex (SERT; [8]): 0.033 ± 0.009 min⁻¹
K2 Hippocampus (SERT; [8]): 0.021 ± 0.006 min⁻¹
K2 Midbrain (SERT; [8]): 0.018 ± 0.006 min⁻¹
K2 Occipital Cortex (SERT; [8]): 0.034 ± 0.010 min⁻¹
K2 Striatum (SERT; [8]): 0.025 ± 0.008 min⁻¹
K2 Temporal Cortex (SERT; [8]): 0.027 ± 0.009 min⁻¹
K2 Thalamus (SERT; [8]): 0.020 ± 0.006 min⁻¹
VT Cerebellum (VT CER, nonspecific distribution volume) (SERT; [8]): 28.5 ± 4.8 mL/g
